Values quoted from earlier work, collected in patent publication US20090175941A1, “Tablet-form slow-release preparation for vertigo” (priority 2005, published 2009).

C(=C\c1ccccc1)/CN1CCN(C(c2ccccc2)c2ccccc2)CC1 [cinnarizine, 1-benzhydryl-4-trans-cinnamylpiperazine]
solubility in water: approximately 2 mg/100 ml
